# From patent US20080279812A1, “Disease Prevention and Vaccination Prior to Thymic Reactivation” (Norwood Immunology, Ltd., priority 2003, published 2008)
# Where a SMILES comes first, the peptide text is derived from it. [ ]: non-standard residue; d: D form. dPhe(4-Cl) = N[C@H](Cc1ccc(Cl)cc1)C(=O)O; d2Nal = N[C@H](Cc1ccc2ccccc2c1)C(=O)O; Lys(iPr) = CC(C)NCCCC[C@H](N)C(=O)O; NMeY = CN[C@@H](Cc1ccc(O)cc1)C(=O)O; d3Pal = N[C@H](Cc1cccnc1)C(=O)O
# B1: G-CSF: granulocyte colony stimulating factor, Neupogen (Amgen) (protein, UniProt P09919 31-207, looked up)
# Granulocyte …: TPLGPASSLPQSFLLKCLEQVRKIQGDGAALQEKLVSECATYKLCHPEELVLLGHSLGIPWAPLSSCPSQALQLAGCLSQLHSGLFLYQGLLQALEGISPELGPTLDTLQLDVADFATTIWQQMEELGMAPALQPTQGAMPAFASAFQRRAGGVLVASHLQSFLEVSYRVLRHLAQP
# modifications: filgrastim, N-terminal Met
# B2: Neulasta®: Amgen product given as single SC dose on day 2 of each chemotherapy cycle; called GM-CSF in the text (protein, UniProt P09919 31-207, looked up)
# Granulocyte …: B1 Granulocyte …
# modifications: pegfilgrastim: PEGylated, N-terminal Met
# notes: called GM-CSF in the text
# Tests used:
# sex steroids = conditions: single injection of sufficient dose; cited from earlier work
# [1] = system: thymus, spleen and lymph node cell numbers; test: Chemical castration compared to surgical castration, T cell regeneration after cyclophosphamide; type: in vivo; conditions: mice
# Description: FIG. 9: Changes in thymus (open bars), spleen (gray bars) and lymph node (black bars) cell numbers following treatment with cyclophosphamide, a chemotherapy agent, and surgical or chemical castration performed on the same day. Note the rapid expansion of the thymus in castrated animals when compared to the non-castrate (cyclophosphamide alone) group at 1 and 2 weeks post-treatment. In addition, spleen and lymph node numbers of the castrate group were well increased compared to the cyclophosphamide alone group. (n=34 per treatment group and time-point).
# T cell Depletion Using Cyclophosphamide. Old mice (e.g., 2 years old) were injected with cyclophosphamide (200 mg/kg body wt over two days) and castrated.
# FIG. 9 illustrates the use of chemical castration compared to surgical castration in enhancement of T cell regeneration. […] The enhancing effects were equivalent on thymic expansion and also the recovery of spleen and lymph node. The kinetics of chemical castration are slower than surgical, that is, mice take about 3 weeks longer to decrease their circulating sex steroid levels. However, chemical castration is still as effective as surgical castration and can be considered to have an equivalent effect.
# [2] = cited from earlier work
molecule,measurement,setting,value
"CC(=O)N[C@H](Cc1ccc2ccccc2c1)C(=O)N[C@H](Cc1ccc(Cl)cc1)C(=O)N[C@H](Cc1cccnc1)C(=O)N[C@@H](CO)C(=O)N(C)[C@@H](Cc1ccc(O)cc1)C(=O)N[C@H](CC(N)=O)C(=O)N[C@@H](CC(C)C)C(=O)N[C@@H](CCCCNC(C)C)C(=O)N1CCC[C@H]1C(=O)N[C@H](C)C(N)=O [Abarelix, abarelix] (Ac-[d2Nal][dPhe(4-Cl)][d3Pal]S[NMeY][dN]L[Lys(iPr)]P[dA]-NH2)",time to castration,sex steroids,5 to 8 days
CCNC(=O)[C@@H]1CCCN1C(=O)[C@H](CCCN=C(N)N)NC(=O)[C@H](CC(C)C)NC(=O)[C@@H](Cc1c[nH]c2ccccc12)NC(=O)[C@H](Cc1ccc(O)cc1)NC(=O)[C@H](CO)NC(=O)[C@H](Cc1c[nH]c2ccccc12)NC(=O)[C@H](Cc1cnc[nH]1)NC(=O)[C@@H]1CCC(=O)N1 [Deslorelin],additional time to decrease circulating sex steroid levels versus surgical castration,[1],about 3 weeks
same,rate of regeneration post-cyclophosphamide treatment compared to surgical castration,[1]; injected for four weeks,comparable rate of regeneration
same,enhancing effects on thymic expansion and recovery of spleen and lymph node versus surgical castration,[1]; post-cyclophosphamide,equivalent
B1,neutrophils,[2]; other Phase I/II trials,measurable increases in neutrophils
same,"incidence of infection (febrile neutropenia, infection rates, in-patient hospitalization, antibiotic use)","[2]; small cell lung cancer, 4-8 μg/kg/day s.c. days 4-17 after chemotherapy, placebo-controlled",clinically and statistically significant decrease
B2,rates of febrile Neutropenia,[2]; both studies,10-20%
same,mean days of severe Neutropenia,"[2]; metastatic breast cancer, administered day 2 of chemotherapy cycle, both studies",approximately 1.7 days
